Patent publication US8952024B2, “Herbicidal pyrimidone derivatives” (E I du Pont de Nemours and Company, priority 2009, dated 2015)

Tests used:
Type in all cases: in vivo
[1] = system: winter barley (Hordeum vulgare); assay: Test B postemergence plant response; settings: Postemergence; for Barley plant response rating: 250 g ai/ha, scale 0 to 100
In short: (§1)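 Plants grown in peat/vermiculite medium were sprayed postemergence at 2–18 cm height (1- to 4-leaf stage). After 13–15 days in the greenhouse, response was rated visually against untreated controls on a 0–100 scale (0 no effect, 100 complete control).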

[2] = system: windgrass (Apera spica-venti); assay: Test B postemergence plant response; settings: Postemergence; for Windgrass plant response rating: 250 g ai/ha, scale 0 to 100
In short: as §1

[3] = system: chickweed (Stellaria media); assay: Test B postemergence plant response; settings: Postemergence; for Chickweed plant response rating: 250 g ai/ha, scale 0 to 100
In short: as §1

[4] = system: canarygrass (Phalaris minor); assay: Test B postemergence plant response; settings: Postemergence; for Canarygrass plant response rating: 250 g ai/ha, scale 0 to 100
In short: as §1

[5] = system: goosegrass (Eleusine indica); assay: Test B pre-/postemergence plant response; settings: Preemergence, 62 g ai/ha; scale 0 to 100, 0 no effect, 100 complete control
[6] = system: morningglory (Ipomoea spp.); assay: Test A pre-/postemergence plant response
In short: (§2)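 Visual injury rating on a 0–100 scale (0 = no effect, 100 = complete control) was made versus untreated controls after about ten days in the greenhouse. Compounds, formulated in a non-phytotoxic solvent mix containing surfactant, were sprayed preemergence onto loam/sand soil and postemergence onto one- to two-leaf plants.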

[7] = system: velvetleaf (Abutilon theophrasti); assay: Test A pre-/postemergence plant response
In short: as §2

[8] = system: wheat (Triticum aestivum); assay: Test A pre-/postemergence plant response
In short: as §2

[9] = system: giant foxtail (Setaria faberii); assay: Test A pre-/postemergence plant response
In short: as §2

corn (Zea mays) = assay: Test A pre-/postemergence plant response
In short: as §2

[10] = system: large crabgrass (Digitaria sanguinalis); assay: Test A pre-/postemergence plant response
In short: as §2

[11] = system: nightshade (eastern black nightshade, Solanum ptycanthum); assay: Test B pre-/postemergence plant response; settings: Preemergence; for Nightshade plant response rating: 125 g ai/ha
In short: (§3)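 Visually scored on a 0 to 100 scale after 13 to 15 days in greenhouse versus controls. Treatments were preemergence on seeded loam/sand soil and postemergence on 1- to 4-leaf plants.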

[12] = system: sunflower (common oilseed sunflower, Helianthus annuus); assay: Test B pre-/postemergence plant response; settings: Preemergence; for Sunflower plant response rating: 125 g ai/ha
In short: as §3

[13] = system: galium (catchweed bedstraw, Galium aparine); assay: Test B pre-/postemergence plant response; settings: Preemergence; for Galium plant response rating: 125 g ai/ha
In short: as §3

[14] = 31 g ai/ha, scale 0 to 100 (0 no effect, 100 complete control)
[15] = 62 g ai/ha, scale 0 (no effect) to 100 (complete control), 13 to 15 days
[16] = 125 g ai/ha, scale 0 to 100 (0 no effect, 100 complete control), 13 to 15 days
[17] = 125 g ai/ha, visual rating after 13 to 15 days, scale 0 (no effect) to 100 (complete control)
[18] = Postemergence, 125 g ai/ha, visual injury, 0 to 100 scale (0 no effect, 100 complete control), approx. ten days
[19] = Postemergence, 500 g ai/ha, 0 to 100 scale, 0 = no effect, 100 = complete control, approx. ten days
[20] = Preemergence, 125 g ai/ha, 0 to 100 scale, 0 = no effect, 100 = complete control
[21] = Preemergence, 500 g ai/ha, visual injury, 0 to 100 scale (0 no effect, 100 complete control), approx. ten days
[22] = 62 g ai/ha, scale 0 to 100, 0 no effect, 100 complete control

Cc1cccc(-n2c(-c3ccccc3)ncc(C(=O)C3=C(O)CCCC3=O)c2=O)c1C [Compound 27]
Plant response rating, Barley [1, 14]: 0
Plant response rating, Barley [1, 15]: 0
Plant response rating, Barley [1, 16]: 10
Barley plant response rating [1]: 20
Plant response rating, Windgrass [2, 14]: 10
Plant response rating, Windgrass [2, 15]: 10
Plant response rating, Windgrass [2, 17]: 50
Windgrass plant response rating [2]: 60
Plant response rating, Chickweed [3, 14]: 40
Plant response rating, Chickweed [3, 15]: 45
Plant response rating, Chickweed [3, 17]: 50
Chickweed plant response rating [3]: 80
Plant response rating, Canarygrass [4, 14]: 10
Plant response rating, Canarygrass [4, 15]: 10
Plant response rating, Canarygrass [4, 17]: 30
Canarygrass plant response rating [4]: 50
Plant response rating, Goosegrass [5]: 98
Morningglory plant response rating [6, 18]: 60
Plant response rating, Morningglory [6, 19]: 70
Plant response rating, Morningglory [6, 20]: 20
Plant response rating, Morningglory [6, 21]: 80
Velvetleaf plant response rating [7, 18]: 100
Plant response rating, Velvetleaf [7, 19]: 100
Plant response rating, Velvetleaf [7, 20]: 60
Plant response rating, Velvetleaf [7, 21]: 100
Wheat plant response rating [8, 18]: 0
Plant response rating, Wheat [8, 19]: 0
Plant response rating, Wheat [8, 20]: 0
Plant response rating, Wheat [8, 21]: 0
Foxtail, Giant plant response rating [9, 18]: 80
Plant response rating, Foxtail, Giant [9, 19]: 90
Plant response rating, Foxtail, Giant [9, 20]: 30
Plant response rating, Foxtail, Giant [9, 21]: 90
Corn plant response rating (corn (Zea mays); [18]): 0
Plant response rating, Corn (corn (Zea mays); [19]): 30
Plant response rating, Corn (corn (Zea mays); [20]): 0
Plant response rating, Corn (corn (Zea mays); [21]): 0
Crabgrass, Large plant response rating [10, 18]: 70
Plant response rating, Crabgrass, Large [10, 19]: 100
Plant response rating, Crabgrass, Large [10, 20]: 30
Plant response rating, Crabgrass, Large [10, 21]: 90
Plant response rating, Nightshade ([11]; 250 g ai/ha, 0 to 100 scale): 100
Plant response rating, Nightshade [11, 14]: 80
Plant response rating, Nightshade [11, 22]: 98
Nightshade plant response rating ([11]; 0 to 100 scale): 100
Plant response rating, Sunflower ([12]; 250 g ai/ha, 0 to 100 scale): 100
Plant response rating, Sunflower [12, 14]: 75
Plant response rating, Sunflower [12, 22]: 75
Sunflower plant response rating ([12]; 0 to 100 scale): 90
Plant response rating, Galium ([13]; 250 g ai/ha, 0 to 100 scale): 95
Plant response rating, Galium [13, 14]: 0
Plant response rating, Galium [13, 22]: 50
Galium plant response rating ([13]; 0 to 100 scale): 85

2-(3,5-difluorophenyl)-5-[(2-hydroxy-4-oxobicyclo[3.2.1]oct-2-en-3-yl)carbonyl]-3-(2-methoxyethyl)-4(3H)-pyrimidinone [Compound 243]
Plant response rating, Barley [1, 14]: 0
Plant response rating, Barley [1, 15]: 0
Plant response rating, Barley [1, 16]: 20
Barley plant response rating [1]: 35
Plant response rating, Windgrass [2, 14]: 50
Plant response rating, Windgrass [2, 15]: 55
Plant response rating, Windgrass [2, 17]: 60
Windgrass plant response rating [2]: 80
Plant response rating, Chickweed [3, 14]: 20
Plant response rating, Chickweed [3, 15]: 85
Plant response rating, Chickweed [3, 17]: 95
Chickweed plant response rating [3]: 98
Plant response rating, Canarygrass [4, 14]: 5
Plant response rating, Canarygrass [4, 15]: 25
Plant response rating, Canarygrass [4, 17]: 50
Canarygrass plant response rating [4]: 60
Plant response rating, Goosegrass [5]: 98
Morningglory plant response rating [6, 18]: 80
Plant response rating, Morningglory [6, 19]: 90
Plant response rating, Morningglory [6, 20]: 20
Plant response rating, Morningglory [6, 21]: 90
Velvetleaf plant response rating [7, 18]: 100
Plant response rating, Velvetleaf [7, 19]: 100
Plant response rating, Velvetleaf [7, 20]: 70
Plant response rating, Velvetleaf [7, 21]: 100
Wheat plant response rating [8, 18]: 0
Plant response rating, Wheat [8, 19]: 40
Plant response rating, Wheat [8, 20]: 0
Plant response rating, Wheat [8, 21]: 0
Foxtail, Giant plant response rating [9, 18]: 80
Plant response rating, Foxtail, Giant [9, 19]: 90
Plant response rating, Foxtail, Giant [9, 20]: 40
Plant response rating, Foxtail, Giant [9, 21]: 90
Corn plant response rating (corn (Zea mays); [18]): 10
Plant response rating, Corn (corn (Zea mays); [19]): 70
Plant response rating, Corn (corn (Zea mays); [20]): 0
Plant response rating, Corn (corn (Zea mays); [21]): 0
Crabgrass, Large plant response rating [10, 18]: 70
Plant response rating, Crabgrass, Large [10, 19]: 90
Plant response rating, Crabgrass, Large [10, 20]: 90
Plant response rating, Crabgrass, Large [10, 21]: 100
Plant response rating, Nightshade ([11]; 250 g ai/ha, 0 to 100 scale): 100
Plant response rating, Nightshade [11, 14]: 100
Plant response rating, Nightshade [11, 22]: 100
Nightshade plant response rating ([11]; 0 to 100 scale): 100
Plant response rating, Sunflower ([12]; 250 g ai/ha, 0 to 100 scale): 98
Plant response rating, Sunflower [12, 14]: 45
Plant response rating, Sunflower [12, 22]: 85
Sunflower plant response rating ([12]; 0 to 100 scale): 95
Plant response rating, Galium ([13]; 250 g ai/ha, 0 to 100 scale): 95
Plant response rating, Galium [13, 14]: 0
Plant response rating, Galium [13, 22]: 40
Galium plant response rating ([13]; 0 to 100 scale): 60
